Results published in patent publication US7795315B2, “N-(2-amino-phenyl)-amide derivatives” (Hoffman-La Roche Inc., priority 2008, dated 2010).

What was measured:
Format in all cases: cell-based
[1] = tested on: HCT-116 colon cancer cells; assay: Antiproliferative activity, growth inhibition (MTS/WST assay); details: Homo sapiens, 72 hour growth inhibition, read-out: GI50 HCT116
Method: The novel compounds of the present invention were tested for their ability to inhibit growth of various cancer cell lines (HeLa, MCF7, U2OS, HepG2, HL60, HCT-116) using in vitro growth inhibition assays described below.
Cells were seeded in 96-well culture plates (200 microliters/well at different seeding concentrations depending on cell type) and incubated overnight at 37 degrees Celsius in 5% CO2. After adding compound dilutions to the cells (DMSO concentration kept below 0.5%), the cells were incubated at 37 degrees Celsius in 5% CO2 for 72 hours. The effects on proliferation were determined by addition of MTS reagent (Promega) according to the manufacturer's instruction, followed by incubation for 2 hours at 37 degrees Celsius in 5% CO2, and finally recording the absorbance at 490 nm using an ELISA plate reader.
Similar to MTS assay except that the developer is the CCK-8 reagent (Dojindo) and the plate reader is set to 450 nm absorbance.
GI50 values against HCT-116 colon cancer cells for specific representative compounds can be found in Table 4.

[2] = tested on: klf2 promoter-luciferase construct in A204 cells; assay: klf2 reporter gene induction (p21 versus klf2 selectivity); details: SNDX-275 p21/klf2 ratio defined as 1.0; for p21/klf2 (RP3): relative selectivity compared with SNDX-275: 3 micromolar; for p21/klf2 (RP10): relative selectivity compared with SNDX-275: 10 micromolar
Method: (§1) The novel compounds of the present invention were tested for their ability to induce p21 gene expression using a reporter gene assay involving HeLa cells transfected with a p21 promoter-luciferase construct. The p21 promoter contained the Sp1/Sp3 binding site for HDAC but not the upstream p53 binding site. Briefly, the day before transfection, HeLa cells were seeded at 11,000 cells/well in a 96-well culture plate and incubated at 37 degrees Celsius in 5% CO2 overnight. For transfection, the medium was removed and replaced with 100 microliters/well transfection media previously prepared as follows: 5 microliters serum-free DMEM, 0.15 microliters Fugene 6 reagent, 40 ng p21-luc, 10 ng GFP were mixed gently and incubated at room temperature for 30 minutes; then 98 microliters DMEM (with 10% FBS, 1% penicillin and streptomycin) was added to the DNA:Fugene 6 reagent complex and mixed gently. After incubating the cells for 24 hours at 37 degrees Celsius in 5% CO2, fresh media and test compounds were added to the wells and the cells further incubated for 15 hours at 37 degrees Celsius in 5% CO2. Cells were lysed by adding 80 microliters/well of a cell culture lysis reagent (Promega). 50 microliters of each lysate was taken for GFP detection using an excitation wavelength of 486 nm and detection at 527 nm. 100 microliters Luciferase assay reagent (Promega) was then added to every 20 microliters cell lysate for luminometer detection. […] Induction activity for specific representative compounds can be found in Table 4.
The novel compounds of the present invention were tested for their ability to induce klf2 gene expression using a reporter gene assay involving A204 cells transfected with a klf2 promoter-luciferase construct. The klf2 promoter contained the MEF2 binding site for HDAC3/class IIa HDAC complex. Briefly, the day before transfection, A204 cells were seeded at 11,000 cells/well in a 96-well culture plate and incubated at 37 degrees Celsius in 5% CO2 overnight. For transfection, the medium was removed and replaced with 100 microliters/well transfection media previously prepared as follows: 5 microliters serum-free DMEM, 0.15 microliters Fugene 6 reagent, 40 ng klf2-luc, 10 ng GFP were mixed gently and incubated at room temperature for 30 minutes; then 98 microliters DMEM (with 10% FBS, 1% penicillin and streptomycin) was added to the DNA:Fugene 6 reagent complex and mixed gently. After incubating the cells for 24 hours at 37 degrees Celsius in 5% CO2, fresh media and test compounds were added to the wells and the cells further incubated for 15 hours at 37 degrees Celsius in 5% CO2. Finally, 10 ng/ml TNF-α was added and the cells further incubated for 4 hours. Cells were lysed by adding 80 microliters/well of a cell culture lysis reagent (Promega). 50 microliters of each lysate was taken for GFP detection using an excitation wavelength of 486 nm and detection at 527 nm. 100 microliters Luciferase assay reagent (Promega) was then added to every 20 microliters cell lysate for luminometer detection.

[3] = tested on: p21 promoter-luciferase construct in HeLa cells; assay: p21 reporter gene induction; details: 3 micromolar, 15 hours, relative to SNDX-275
Method: as §1

SMILES	GI50 [1] [nM]	p21/klf2 (RP3): relative selectivity compared with SNDX-275 [2]	p21/klf2 (RP10): relative selectivity compared with SNDX-275 [2]	p21 (RP3): relative induction potency compared with SNDX-275 [3] [%]
Nc1ccccc1NC(=O)/C=C/c1ccc(C(NCCN2CCCCC2)C(=O)Nc2ccc(C(F)(F)F)cc2)cc1 (centres unmarked) [Example 4-2, (E)-N-(2-Amino-phenyl)-3-{4-[(2-piperidin-1-yl-ethylamino)-(4-trifluoromethyl-phenylcarbamoyl)-methyl]-phenyl}-acrylamide]	700	2.2	3.6	324
Nc1ccccc1NC(=O)/C=C/c1ccc(C(NCCN2CCOCC2)C(=O)Nc2ccc(OC(F)(F)F)cc2)cc1 (centres unmarked) [Example 4-4, (E)-N-(2-Amino-phenyl)-3-{4-[(2-morpholin-4-yl-ethylamino)-(4-trifluoromethoxy-phenylcarbamoyl)-methyl]-phenyl}-acrylamide]	1100	1.2	3.1	125
Nc1ccccc1NC(=O)/C=C/c1ccc(C(NCCCN2CCOCC2)C(=O)Nc2ccc(C(F)(F)F)cc2)cc1 (centres unmarked) [Example 4-5, (E)-N-(2-Amino-phenyl)-3-{4-[(3-morpholin-4-yl-propylamino)-(4-trifluoromethyl-phenylcarbamoyl)-methyl]-phenyl}-acrylamide]	800	1.2	4.5	241
Nc1ccccc1NC(=O)/C=C/c1ccc(C(NCCN2CCSCC2)C(=O)Nc2ccc(C(F)(F)F)cc2)cc1 (centres unmarked) [Example 4-14, (E)-N-(2-Amino-phenyl)-3-{4-[(2-thiomorpholin-4-yl-ethylamino)-(4-trifluoromethyl-phenylcarbamoyl)-methyl]-phenyl}-acrylamide]	600	1.2	5.1	84

Further compounds by falling GI50 [1], results first:

GI50 [1] [nM]	SMILES	p21/klf2 (RP3): relative selectivity compared with SNDX-275 [2]	p21/klf2 (RP10): relative selectivity compared with SNDX-275 [2]	p21 (RP3): relative induction potency compared with SNDX-275 [3] [%]
1000	N#Cc1ccc(NC(=O)C(NCCN2CCOCC2)c2ccc(/C=C/C(=O)Nc3ccccc3N)cc2)cc1 (centres unmarked) [Example 4-3, (E)-N-(2-Amino-phenyl)-3-{4-[(4-cyano-phenylcarbamoyl)-(2-morpholin-4-yl-ethylamino)-methyl]-phenyl}-acrylamide]	0.8	1.2	99
700	CN(C)CCNC(C(=O)Nc1ccc(C(F)(F)F)cc1)c1ccc(/C=C/C(=O)Nc2ccccc2N)cc1 (centres unmarked) [Example 4-1, (E)-N-(2-Amino-phenyl)-3-{4-[(2-dimethylamino-ethylamino)-(4-trifluoromethyl-phenylcarbamoyl)-methyl]-phenyl}-acrylamide]	1.4	5.5	300
600	CN(C)CCNC(C(=O)Nc1ccc(OC(F)(F)F)cc1)c1ccc(/C=C/C(=O)Nc2ccccc2N)cc1 (centres unmarked) [Example 4-6, (E)-N-(2-Amino-phenyl)-3-{4-[(2-dimethylamino-ethylamino)-(4-trifluoromethoxy-phenylcarbamoyl)-methyl]-phenyl}-acrylamide]	1.4	3.0	184
400	Nc1ccccc1NC(=O)/C=C/c1ccc(C(NCCN2C[C@@H]3C[C@H]2CO3)C(=O)Nc2ccc(C(F)(F)F)cc2)cc1 (stereo partly drawn) [Example 4-12, (E)-N-(2-Amino-phenyl)-3-{4-[[(1S,4S)-2-(2-oxa-5-aza-bicyclo[2.2.1]hept-5-yl)-ethylamino]-(4-trifluoromethyl-phenylcarbamoyl)-methyl]-phenyl}-acrylamide]	10.6	0.8	167
